Reference: patent US10780069B2, “Use of GC-1 in transplant related population” (University of Pittsburgh—Of the Commonwealth System of …, priority 2017, dated 2020)

Key:
[1] = Serum ALT/bilirubin and hepatic histology after GC-1 or T3; type: in vivo, mice; conditions: T3 (4 mg/Kg of diet) or GC-1 (5 mg/Kg of diet) chow 8 days, vs basal diet
Procedure: (§1) All studies on mice were performed in strict accordance with Guidelines. Eight-week old male C57BL/6 male mice (Jackson/Charles River) were maintained on a standard laboratory basal diet (Test Diet) (n=4), or fed a T3-supplemented diet (4 mg/Kg of diet, Sigma Chemicals, St. Louis Mo.) (n=4). GC-1 was administered to the eight week-old male C57BL/6 male mice either via GC-1-supplemented diet (5 mg/Kg of diet, Medchem Express) for 8 days (n=4) or via daily intraperitoneal injections (IP) of GC-1 dissolved in DMSO (0.3 mg/kg/dose) for 8 days (n=7). As a control group for injections, DMSO alone was injected daily intraperitoneal (IP) for 8 days (n=5). Mice were sacrificed 24 hours after the last injection.

[2] = tested on: hepatocytes; test: T3- or GC-1-supplemented diet in wild type mice: hepatocyte proliferation; type: in vivo
Procedure: as §1
(§2) To label dividing hepatocytes, BrdU (5-bromodeoxyuridine) dissolved in drinking water (1 mg/ml) was given to all animals throughout the experiment period. The animals were given food and water ad libitum with a 12-hour light/dark daily cycle.
(§3) Four micron liver sections were analyzed by immunohistochemistry for β-Catenin (BD Biosciences, San Jose, Calif.), Cyclin-D1 (Thermo-Scientific, Fremont, Calif.) and PCNA (Santa Cruz Biotechnology, Dallas, Tex.). Briefly, formalin-fixed sections were deparaffinized in graded xylene and alcohol. Endogenous peroxidase was inactivated using 3% hydrogen peroxide (Sigma). For β-Catenin, Cyclin-D1 staining, slides were microwaved in Citrate buffer followed by blocking with Superblock for 10 minutes. Sections were then incubated with secondary anti-mouse (for β-catenin) or anti-rabbit (for Cyclin-D1) horseradish peroxidase-conjugated antibody for 30 minutes.
(§4) Bromodeoxyuridine (BrdU) was stained with mouse antibody (Becton Dickinson) as previously described (Fanti et al. (2014) Hepatology 59, 2309-2320). Briefly, tissue sections were deparaffinized, exposed to 0.3% hydrogen peroxide in deionized water for 10 minutes to block endogenous peroxidase, treated with 2N HCl, incubated with trypsin 0.1% for 20 minutes and then with normal goat serum for 20 minutes at room temperature. Sections were then incubated overnight in cold room with anti-BrdU monoclonal antibody, followed by biotinylated goat anti-mouse IgG. DAB kit was then applied, and sections were counterstained with hematoxylin. A small segment of intestine was included from each mouse as a positive control for the staining. For quantification of BrdU staining, at least 10 high power fields (400× or 600×) fields each from at least three biological replicates were counted as indicated in the figures. Statistical analysis was performed as described below.

[3] = tested on: hepatocytes; test: T3 or GC-1 in LRP5-6 LKO mice and littermate controls; type: in vivo
Procedure: Eight to 10 week-old LRP5-6-LKO were obtained from breeding homozygous LRP5-6 double floxed mice with albumin-cre transgenic mice as described previously (Yang et al. (2014) Hepatology 60, 964-976). LRP5-6-LKO or sex matched littermate controls were given either T3-supplemented diet (n=4), basal diet (n=3), IP GC-1 (n=3) or IP DMSO (n=3). Mice were sacrificed at 24 hours after the last IP injection.
To label dividing hepatocytes, BrdU (5-bromodeoxyuridine) dissolved in drinking water (1 mg/ml) was given to all animals throughout the experiment period. The animals were given food and water ad libitum with a 12-hour light/dark daily cycle. […]
(§5) Protein extraction from frozen liver tissue and western blot analysis were performed as previously described (Fanti et al., (2014) Hepatology 59, 2309-2320). For protein extraction, a small amount of frozen liver tissue was obtained (over dry ice) and was homogenized using RIPA buffer with protease and phosphatase inhibitor cocktail (Sigma, St. Louis, Mo.). Samples were transferred to a 1.5 ml tube on ice, and spun in cold room centrifuge at 14,000 RPM for 5 minutes. Pellet was then discarded and sample was aliquoted and stored at −80 C for use. Fifty micrograms of the proteins were resolved by sodium dodecyl sulfate-polyacrylamide gel electrophoresis analysis, and transferred to immobilon-polyvinylidene difluoride membranes.
The primary antibodies used were against β-catenin (BD Biosciences); pSer675-β-catenin, pSer552-β-catenin, Active-β-catenin (Cell-Signaling), Cyclin-D1 (Thermo-Scientific), and β-Actin (Sigma). Dilutions of primary antibody were done according to manufacturer recommendations (1:1000 for all except Cyclin-D1 which was 1:200). Horseradish peroxidase-conjugated secondary antibodies used were goat anti-mouse (1:20,000) and goat anti-rabbit (1:10,000) (Millipore). The proteins were detected by Super-Signal West Pico Chemiluminescense Substrate (Thermo Scientific, Rockford Ill.) and visualized by autoradiography. […]

[4] = tested on: preneoplastic hepatocytes; conditions: resistant-hepatocyte model of hepatocarcinogenesis (T3, rats); Ledda-Columbano 2000, Perra 2009; cited from earlier work
[5] = tested on: liver regeneration; conditions: rats; Columbano et al. (2008); cited from earlier work
[6] = tested on: hepatocytes; test: GC-1 or T3 in hepatocyte specific β-catenin knockout mice (β-Cat LKO) and littermate controls; type: in vivo
Procedure: Eight to 10 week old male hepatocyte specific β-catenin knockout mice (β-cat-LKO) or sex-matched littermate controls obtained from breeding homozygous floxed β-catenin mice and albumin-cre transgenic mice (as described elsewhere (Tan et al., (2006) Gastroenterology 131, 1561-1572)) were given 8 daily IP injections of GC-1 (n=4) or DMSO (n=4) and harvested around 24 hours after the last injection.
as §2, §3, §4, §5
The primary antibodies used were against β-catenin (BD Biosciences); pSer675-β-catenin, pSer552-β-catenin, Active-β-catenin (Cell-Signaling), Cyclin-D1 (Thermo-Scientific), and β-Actin (Sigma). Dilutions of primary antibody were done according to manufacturer recommendations (1:1000 for all except Cyclin-D1 which was 1:200). Horseradish peroxidase-conjugated secondary antibodies used were goat anti-mouse (1:20,000) and goat anti-rabbit (1:10,000) (Millipore). The proteins were detected by Super-Signal West Pico Chemiluminescense Substrate (Thermo Scientific, Rockford Ill.) and visualized by autoradiography.
Total RNA was extracted by homogenizing frozen liver tissues in Trizol reagent (Invitrogen, Carlsbad, Calif.) from GC-1-injected β-Cat LKO (n=4) and littermate control mice (n=4); and GC-1-injected LRP5-6 LKO (n=3) and littermate control mice (n=3). […]

[7] = tested on: hepatocytes; test: Partial hepatectomy after pretreatment with T3 or GC-1 supplemented diet; type: in vivo, mice
Procedure: as §2
After 7 days of receiving T3 supplemented diet (n=3) or GC-1 diet (n=3) or standard basal mouse chow (n=3), C57BL/6 male mice underwent partial hepatectomy as described previously (Tan et al. (2006) Gastroenterology 131, 1561-1572). Anesthesia was provided with inhaled Isoflurane. The animals were sacrificed 24 hours post hepatectomy, after Isoflurane anesthesia and cervical dislocation. Serum and liver tissue were harvested for further processing.
as §3, §4

## N[C@@H](Cc1cc(I)c(Oc2ccc(O)c(I)c2)c(I)c1)C(=O)O [T3, Triiodothyronine]
[1]
  histological changes in the livers: no histological changes
[2]; T3 (4 mg/Kg of diet) or GC-1 (5 mg/Kg of diet) chow 8 days, vs basal diet
  BrdU incorporation: increased BrdU incorporation
[2]; T3 diet or IP GC-1, 8 days, vs respective controls
  cyclin-D1 staining in hepatocytes: notably increased cyclin-D1 staining
[2]; T3 or GC-1 supplemented diet 8 days, vs basal diet
  cyclin-D1 staining in hepatocytes: increased in both groups
[2]; T3 supplemented diet versus IP GC-1, 8 days, p<0.001 between groups
  BrdU-positive hepatocytes, T3 diet versus IP GC-1: highest proliferation
[3]; LRP5-6-LKO and littermate controls
  pSer675-β-catenin levels, Western blot: comparable or even greater levels
[3]; LRP5-6 LKO
  pSer552-β-catenin levels, Western blot: modest increase
[3]; LRP5-6 LKO after T3 or GC-1 feeding vs basal diet
  active β-catenin levels: no notable differences
[3]; LRP5-6 LKO vs controls
  cyclin-D1 protein and mRNA expression: decreased
  numbers of cyclin-D1-positive hepatocytes (immunohistochemistry): notably decreased
  total β-catenin levels: comparable levels
[3]; LRP5-6 LKO vs controls, T3 diet 4 mg/Kg of diet or GC-1 0.3 mg/Kg/dose IP 8 days
  number of BrdU-labeled hepatocyte nuclei: notable decrease
[3]; control mice fed T3 or GC-1 diet for 8 days vs basal diet
  active β-catenin levels in liver lysates: dramatic increase
[4]
  effect on preneoplastic lesions / carcinogenic process: accelerate remodeling of chemically-induced preneoplastic lesions
[5]
  liver regeneration after partial hepatectomy: regenerative advantage
  survival in a 90% hepatectomy model: survival advantage
[6]; β-Cat LKO after T3 or GC-1 treatment
  active β-catenin, Western blot: very faint signal
[6]; β-Cat LKO vs controls treated with GC-1 or T3
  P-Ser675-β-catenin, Western blot: absent
[7]; 24 hours after hepatectomy
  nuclear cyclin-D1 immunohistochemistry at 24 hours after hepatectomy: panlobular distribution
[7]; 24 hours post hepatectomy
  hepatocyte proliferative response post hepatectomy, T3 versus GC-1: significantly greater hepatocyte proliferative response than GC-1
[7]; diet pretreatment, vs basal diet
  BrdU positive hepatocyte nuclei at 24 hours after hepatectomy: pronounced increase
[7]; pre-hepatectomy vs 24 hour-post hepatectomy, same animals, all three mice
  increase in hepatocyte proliferation over the 24-hour liver regeneration period: around 2 fold
[7]; pretreatment livers
  cyclin-D1 immunohistochemistry in resected lobes at time of hepatectomy: expansion of cyclin-D1 positive hepatocytes in the midzonal area
[7]; seven-day pretreatment, vs basal diet
  BrdU-positive hepatocytes in resected lobes at time of hepatectomy: increased BrdU-positive hepatocytes
